In US10369138B2, “Monobactam organic compounds for the treatment of bacterial infections” (Novartis AG, priority 2014, dated 2019):
≈ marks a conversion by molar mass, not a printed value.

How the values were obtained:
E. coli strain 25922 = test: MIC by broth microdilution, E. coli strain 25922; assay type: cell-based; details: Escherichia coli, 25922, E. coli strain 25922; read-out: Ec 25922 (MIC)
How it was run: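 CLSI broth microdilution in cation-adjusted Mueller-Hinton broth, inoculum about 5×10^5 CFU/mL, 10% DMSO from the diluted series, 20 h at 35-37° C. MIC is the lowest concentration preventing visible growth, read by eye and at 600 nm.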

E. coli containing KPC-2 = test: MIC by broth microdilution, E. coli containing KPC-2 (Ec KPC2 Iso); assay type: cell-based; details: Escherichia coli, read-out: Ec KPC2 Iso (MIC), E. coli containing KPC-2 (carbapenemase from Klebsiella pneumoniae)
How it was run: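 Host E. coli BW25113 pspB carrying multicopy pBAD18-kan plasmid with constitutive TEM-promoter KPC-2 expression (periplasmic signal sequence); broth microdilution per CLSI in cation-adjusted Mueller-Hinton broth, inoculum ~5×10^5 CFU/mL, compounds twofold serially diluted from DMSO masters (10% DMSO in dilution series added).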

| Structure (SMILES) | MIC (E. coli strain 25922) [µg/mL] | MIC (E. coli containing KPC-2) [µg/mL] |
| --- | --- | --- |
| CN(Cc1ccccc1)Cc1cnn(C[C@@H]2[C@H](NC(=O)/C(=N\OC(C)(C)C(=O)O)c3csc(N)n3)C(=O)N2S(=O)(=O)O)n1 [Example 83, 2-(((Z)-(1-(2-aminothiazol-4-yl)-2-(((2R,3S)-2-((4-((benzyl(methyl)amino)methyl)-2H-1,2,3-triazol-2-yl)methyl)-4-oxo-1-sulfoazetidin-3-yl)amino)-2-oxoethylidene)amino)oxy)-2-methylpropanoic acid] | 32 (≈ 50.3 µM) | 32 (≈ 50.3 µM) |
| N=C(NC1CCNCC1)c1ccc(OC[C@H](O/N=C(\C(=O)N[C@@H]2C(=O)N(S(=O)(=O)O)[C@@H]2Cn2ncc(CN)n2)c2csc(N)n2)C(=O)O)cc1 [Example 84, (S)-2-(((Z)-(2-(((2R,3S)-2-((4-(aminomethyl)-2H-1,2,3-triazol-2-yl)methyl)-4-oxo-1-sulfoazetidin-3-yl)amino)-1-(2-aminothiazol-4-yl)-2-oxoethylidene)amino)oxy)-3-(4-(N-(piperidin-4-yl)carbamimidoyl)phenoxy)propanoic acid] | 0.5 (≈ 0.68 µM) | 0.5 (≈ 0.68 µM) |
| Nc1nc(/C(=N/OC2(C(=O)O)CC2)C(=O)N[C@@H]2C(=O)N(S(=O)(=O)O)[C@@H]2Cn2ncc(CNCC3CNC3)n2)cs1 [Example 85, 1-(((Z)-(1-(2-aminothiazol-4-yl)-2-(((2R,3S)-2-((4-(((azetidin-3-ylmethyl)amino)methyl)-2H-1,2,3-triazol-2-yl)methyl)-4-oxo-1-sulfoazetidin-3-yl)amino)-2-oxoethylidene)amino)oxy)cyclopropanecarboxylic acid] | 0.5 (≈ 0.835 µM) | 0.5 (≈ 0.835 µM) |
| CC(C)(O/N=C(\C(=O)N[C@@H]1C(=O)N(S(=O)(=O)O)[C@@H]1CN1CC[C@@H](N)C1=O)c1csc(N)n1)C(=O)O [Example 86, 2-(((Z)-(2-(((2R,3S)-2-(((R)-3-amino-2-oxopyrrolidin-1-yl)methyl)-4-oxo-1-sulfoazetidin-3-yl)amino)-1-(2-aminothiazol-4-yl)-2-oxoethylidene)amino)oxy)-2-methylpropanoic acid] | 1 (≈ 1.87 µM) | 1 (≈ 1.87 µM) |
| CC(C)(O/N=C(\C(=O)N[C@@H]1C(=O)N(S(=O)(=O)O)[C@@H]1Cn1cc[nH]c1=O)c1csc(N)n1)C(=O)O [Example 87, 2-(((Z)-(1-(2-aminothiazol-4-yl)-2-oxo-2-(((3S,4R)-2-oxo-4-((2-oxo-2,3-dihydro-1H-imidazol-1-yl)methyl)-1-sulfoazetidin-3-yl)amino)ethylidene)amino)oxy)-2-methylpropanoic acid] | 1 (≈ 1.93 µM) | 0.5 (≈ 0.966 µM) |
| CC(C)(O/N=C(\C(=O)N[C@@H]1C(=O)N(S(=O)(=O)O)[C@@H]1CN1CC[C@@H](NC(=N)N)C1=O)c1csc(N)n1)C(=O)O [Example 88, 2-(((Z)-(1-(2-aminothiazol-4-yl)-2-(((2R,3S)-2-(((R)-3-guanidino-2-oxopyrrolidin-1-yl)methyl)-4-oxo-1-sulfoazetidin-3-yl)amino)-2-oxoethylidene)amino)oxy)-2-methylpropanoic acid] | 2 (≈ 3.47 µM) | 4 (≈ 6.95 µM) |
| Nc1nc(/C(=N/OC2(C(=O)O)CC2)C(=O)N[C@@H]2C(=O)N(S(=O)(=O)O)[C@@H]2Cn2ncc(CN[C@@H]3CCNC3)n2)cs1 [Example 89, 1-(((Z)-(1-(2-aminothiazol-4-yl)-2-oxo-2-(((3S,4R)-2-oxo-4-((4-(((R)-pyrrolidin-3-ylamino)methyl)-2H-1,2,3-triazol-2-yl)methyl)-1-sulfoazetidin-3-yl)amino)ethylidene)amino)oxy)cyclopropanecarboxylic acid] | 0.5 (≈ 0.835 µM) | 1 (≈ 1.67 µM) |
| NCCCNCc1cnn(C[C@@H]2[C@H](NC(=O)/C(=N\OC3(C(=O)O)CC3)c3csc(N)n3)C(=O)N2S(=O)(=O)O)n1 [Example 90, 1-(((Z)-(2-(((2R,3S)-2-((4-(((3-aminopropyl)amino)methyl)-2H-1,2,3-triazol-2-yl)methyl)-4-oxo-1-sulfoazetidin-3-yl)amino)-1-(2-aminothiazol-4-yl)-2-oxoethylidene)amino)oxy)cyclopropanecarboxylic acid] | 0.25 (≈ 0.426 µM) | 0.25 (≈ 0.426 µM) |
